Values quoted from earlier work in US5753436A, “Chemiluminescent energy transfer assays” (Tropix, Inc., priority 1995, dated 1998).

Test system: alkaline phosphatase

In the case of `O=P(O)(O)Oc1ccc2nc(-c3nc4ccccc4s3)sc2c1` [AttoPhos], the Km is given as 30 µM and the turnover number (2.40M DEA (diethanolamine) pH 9.0, 0.23 mM MgCl2, 0.005% NaN by weight) is given as 85,400 molecules of AttoPhos per minu.
